In publication PMC9518283 (Journal of Enzyme Inhibition and Medicinal Chemistry, 2022):

Assays:
[1] = target: human AChE (hAChE; EC 3.1.1.7) (Homo sapiens, UniProt P22303); assay: biochemical; settings: for IC50: mean of at least three experiments, read-out: IC50 hAChE ± STD; for SI (hBChE/hAChE): ratio IC50(hBChE)/IC50(hAChE)
Experimental: (§1) For that purpose, Ellman’s colorimetric assay was used[35].
(§2) The catalytic activity of both cholinesterases was determined by standard Ellman’s method adapted for 96-well plates. All tested inhibitors were freshly prepared in 50% DMSO/50% methanol at 10 mM concentration as stock solutions and then diluted in 0.1 M phosphate buffer, pH 7.4. […] The mixture was pre-incubated at 37 °C for 15 min and subsequently substrate (acetylthiocholine iodide or butyrylthiocholine iodide) was added to the final concentration of 1000 μM. The final volume of the reaction was 100 μL. The catalytic activity was evaluated as the amount of product (%) formed by enzyme after 10 min of incubation at 37 °C. The IC50 values from three independent experiments for each inhibitor concentration in triplicate were calculated using non-linear regression curve analysis in Prism version 7 Software (GraphPad Software Inc., San Diego, CA).

[2] = target: human butyrylcholinesterase (hBChE; EC 3.1.1.8) (Homo sapiens, UniProt P06276); assay: biochemical; settings: mean of at least three experiments; read-out: IC50 hBChE ± STD
Experimental: as §1, §2

[3] = target: T1, hMAO-B (Homo sapiens, UniProt P27338); assay: biochemical; settings: residual enzyme activity; for % of MAO-B activity (1 µM): compound at 1 µM; for % of MAO-B activity (10 µM): compound at 10 µM
T1 construct: purchased Sigma-Aldrich (St. Louis, MO, USA)
T1 sequence (P27338 1-520): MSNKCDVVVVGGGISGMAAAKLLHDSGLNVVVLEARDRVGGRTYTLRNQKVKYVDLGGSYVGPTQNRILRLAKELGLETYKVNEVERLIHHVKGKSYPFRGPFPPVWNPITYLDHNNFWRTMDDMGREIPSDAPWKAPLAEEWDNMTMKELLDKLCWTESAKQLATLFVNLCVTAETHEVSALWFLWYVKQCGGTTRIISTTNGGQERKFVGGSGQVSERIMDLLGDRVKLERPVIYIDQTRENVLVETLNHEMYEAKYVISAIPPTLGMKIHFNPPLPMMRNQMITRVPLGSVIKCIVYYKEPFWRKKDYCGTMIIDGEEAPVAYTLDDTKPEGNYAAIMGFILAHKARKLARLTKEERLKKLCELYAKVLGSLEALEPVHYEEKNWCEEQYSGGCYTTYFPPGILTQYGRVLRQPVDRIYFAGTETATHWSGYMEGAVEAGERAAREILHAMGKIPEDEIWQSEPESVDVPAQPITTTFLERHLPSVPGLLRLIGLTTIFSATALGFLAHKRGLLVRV
Experimental: (§3) The hMAO-A and hMAO-B enzymes were purchased from Sigma-Aldrich (St. Louis, MO, USA). […] The mixture was pre-incubated at 37 °C for 5 min and subsequently substrate kynuramine was added to the final concentration of 60 µM in the case of hMAO-A and 30 µM in the case of hMAO-B. The final volume of reaction mixture was 0.1 mL. The whole reaction mixture was incubated at 37 °C for 30 min. The reaction was stopped by the addition of 200 µL acetonitrile/methanol mixture (ratio 1:1) and cooling down to 0 °C. […] Eluents: (A) 0.1% formic acid in water; (B) 0.1% formic acid in acetonitrile.

[4] = target: T2, hMAO-A (Homo sapiens, UniProt P21397); assay: hMAO-A inhibition, kynuramine substrate, HPLC-MS; format: biochemical; settings: residual enzyme activity; for % of MAO-A activity (1 µM): compound at 1 µM; for % of MAO-A activity (10 µM): compound at 10 µM
T2 construct: purchased Sigma-Aldrich (St. Louis, MO, USA)
T2 sequence (P21397 1-527): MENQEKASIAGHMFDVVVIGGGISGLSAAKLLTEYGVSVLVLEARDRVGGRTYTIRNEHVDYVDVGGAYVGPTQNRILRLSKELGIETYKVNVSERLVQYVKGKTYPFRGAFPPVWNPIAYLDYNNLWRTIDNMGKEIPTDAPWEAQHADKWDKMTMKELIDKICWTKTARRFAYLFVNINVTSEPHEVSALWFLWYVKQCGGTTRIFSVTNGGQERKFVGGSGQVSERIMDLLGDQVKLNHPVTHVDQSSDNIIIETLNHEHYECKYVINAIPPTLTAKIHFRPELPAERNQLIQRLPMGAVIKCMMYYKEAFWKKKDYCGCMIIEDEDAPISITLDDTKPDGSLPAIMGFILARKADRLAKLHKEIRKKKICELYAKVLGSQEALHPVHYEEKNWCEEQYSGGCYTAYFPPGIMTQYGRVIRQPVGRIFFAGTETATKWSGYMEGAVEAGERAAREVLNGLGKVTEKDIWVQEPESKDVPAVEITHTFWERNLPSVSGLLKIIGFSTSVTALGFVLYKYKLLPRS
Experimental: as §3

human AChE (hAChE; EC 3.1.1.7), sequence (P22303 32-614): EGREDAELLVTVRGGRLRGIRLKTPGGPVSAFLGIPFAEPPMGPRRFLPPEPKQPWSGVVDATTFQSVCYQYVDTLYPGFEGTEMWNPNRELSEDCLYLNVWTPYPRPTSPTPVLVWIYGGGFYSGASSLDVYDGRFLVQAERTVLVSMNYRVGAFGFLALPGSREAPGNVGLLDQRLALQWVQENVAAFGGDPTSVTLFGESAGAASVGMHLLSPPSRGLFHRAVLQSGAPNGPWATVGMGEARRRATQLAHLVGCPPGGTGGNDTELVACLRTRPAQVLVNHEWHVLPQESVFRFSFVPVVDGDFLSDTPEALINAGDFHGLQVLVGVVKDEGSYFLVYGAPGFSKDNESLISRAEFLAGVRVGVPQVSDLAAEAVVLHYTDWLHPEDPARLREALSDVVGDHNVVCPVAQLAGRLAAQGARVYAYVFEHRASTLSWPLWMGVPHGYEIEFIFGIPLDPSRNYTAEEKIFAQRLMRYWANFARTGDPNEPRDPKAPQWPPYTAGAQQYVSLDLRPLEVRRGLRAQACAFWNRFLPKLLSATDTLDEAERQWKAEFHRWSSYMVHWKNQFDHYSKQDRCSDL
human butyrylcholinesterase (hBChE; EC 3.1.1.8), sequence (P06276 29-602): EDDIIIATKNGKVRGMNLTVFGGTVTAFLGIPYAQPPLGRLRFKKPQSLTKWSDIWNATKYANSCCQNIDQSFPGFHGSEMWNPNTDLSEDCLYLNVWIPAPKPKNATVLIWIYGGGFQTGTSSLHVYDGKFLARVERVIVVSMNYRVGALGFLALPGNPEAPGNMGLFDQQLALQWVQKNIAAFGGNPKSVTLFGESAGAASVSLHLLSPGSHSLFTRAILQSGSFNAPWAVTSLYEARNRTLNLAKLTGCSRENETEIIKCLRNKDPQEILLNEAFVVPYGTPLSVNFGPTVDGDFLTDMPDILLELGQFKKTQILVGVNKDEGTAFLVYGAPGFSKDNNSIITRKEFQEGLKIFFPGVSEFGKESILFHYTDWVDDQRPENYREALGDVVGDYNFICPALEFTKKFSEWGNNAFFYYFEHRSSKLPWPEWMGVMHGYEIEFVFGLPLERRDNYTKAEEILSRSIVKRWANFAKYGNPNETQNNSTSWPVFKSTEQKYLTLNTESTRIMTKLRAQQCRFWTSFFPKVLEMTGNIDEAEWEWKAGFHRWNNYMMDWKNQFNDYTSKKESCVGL

SMILES	IC50 [1] [µM]	SI (hBChE/hAChE) [1]	IC50 [2] [µM]	% of MAO-B activity (1 µM) [3] [%]	% of MAO-B activity (10 µM) [3] [%]	% of MAO-A activity (1 µM) [4] [%]	% of MAO-A activity (10 µM) [4] [%]
C=CCN(CC=C)c1c2c(nc3ccccc13)CCCC2.Cl [Compound 1, N,N-Di(prop-2-en-1-yl)-1,2,3,4-tetrahydroacridin-9-amine hydrochloride]	0.493 ± 0.012	1.45	0.716 ± 0.035	89	62	95	85
C=CCNc1c2c(nc3ccccc13)CCCC2.Cl [Compound 2, N-(prop-2-en-1-yl)-1,2,3,4-tetrahydroacridin-9-amine hydrochloride]	0.303 ± 0.004	1.61	0.488 ± 0.019	48	72	78	58
C=CCNc1c2c(nc3cc(Cl)ccc13)CCCC2.Cl [Compound 3, 6-Chloro-N-(prop-2-en-1-yl)-1,2,3,4-tetrahydroacridin-9-amine hydrochloride]	0.07 ± 0.001		3.22 ± 0.129	71	64	76	73
C=CCN(CC=C)c1c2c(nc3ccc(OC)cc13)CCCC2.Cl [Compound 4, 7-Methoxy-N,N-di(prop-2-en-1-yl)-1,2,3,4-tetrahydroacridin-9-amine hydrochloride]	3.69 ± 0.113	2.37	8.76 ± 0.292	83	61	103	107
C=CCNc1c2c(nc3ccc(OC)cc13)CCCC2.Cl [Compound 5, 7-Methoxy-N-(prop-2-en-1-yl)-1,2,3,4-tetrahydroacridin-9-amine hydrochloride]	2.27 ± 0.062	5.52	12.5 ± 0.387	82	70	97	62
C=CCN(CC=C)c1c2c(nc3ccc(Oc4ccccc4)cc13)CCCC2.Cl [Compound 6, 7-Phenoxy-N,N-di(prop-2-en-1-yl)-1,2,3,4-tetrahydroacridin-9-amine hydrochloride]	9.54 ± 0.138	1.38	13.2 ± 0.408	16	4	76	78
C#CCN(CC#C)c1c2c(nc3ccccc13)CCCC2.Cl [Compound 8, N,N-Di(prop-2-yn-1-yl)-1,2,3,4-tetrahydroacridin-9-amine hydrochloride]	0.186 ± 0.005	5.04	0.937 ± 0.043	59	47	103	111
C#CCN(CC#C)c1c2c(nc3cc(Cl)ccc13)CCCC2 [Compound 10]	0.105 ± 0.004	103.52	10.9 ± 1.02	106	141	92	92
C#CCN(CC#C)c1c2c(nc3ccc(OC)cc13)CCCC2.Cl [Compound 12, 7-Methoxy-N,N-di(prop-2-yn-1-yl)-1,2,3,4-tetrahydroacridin-9-amine hydrochloride]	5.12 ± 0.184	1.56	7.97 ± 0.3	63	45	123	114
C#CCNc1ccnc2cc(Cl)ccc12.Cl [Compound 28, 7-Chloro-N-(prop-2-yn-1-yl)quinolin-4-amine hydrochloride]	8.71 ± 0.242			150	61	39	31
